For 25 compounds, IC50 results are on record in patent publication US20230031406A1, “COMPOUNDS AND COMPOSITIONS FOR TREATING CONDITIONS ASSOCIATED WITH NLRP ACTIVITY” (Novartis AG, priority 2018, published 2023).

The structures appear in SMILES notation. Read-outs that look alike come from different tables or passages of the source.

The test system of the experiment is PMA-differentiated THP-1 cells. The experiment is described as follows: IL-1β production in PMA-differentiated THP-1 cells stimulated with gramicidin (hTHP-1 assay containing 2% fetal bovine serum; Procedures 1 and 2). Format: cell-based, human. Conditions: 2% fetal bovine serum. In short, it runs like this: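 PMA 20 ng/ml 16-18 h → trypsinise → 50,000 cells/well, RPMI/2% FBS; cpd 1 h (11-pt, 100–0.0017 μM; DMSO 0.37%); gramicidin 5 μM, 2 h; spin; supernatant IL-1β via HTRF.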

[1] abbreviates: Table B3, hTHP-1 assay, class symbols, read-out: IC50.
Setting [2] is: Homo sapiens, THP-1, Table B2, class symbols, read-out: hTHP-1 IC50.
Where [3] appears, read: Table B2, class symbols, read-out: hTHP-1 IC50.
[4] abbreviates: Homo sapiens, THP-1, Table B1, class symbols, read-out: Average IC50 of compounds in hTHP-1 assay: hTHP-1 IC50.
The mark [5] stands for this setting: Homo sapiens, THP-1, Table B3, hTHP-1 assay, class symbols, read-out: IC50.

Turning to `CCc1c(C(F)(F)F)nc2c(c1NC(=O)N=S(N)(=O)c1nn(C(F)F)cc1F)CCC2` (single isomer, unassigned) [Example 710, (S) or (R)-1-(difluoromethyl)-N′-((3-ethyl-2-(trifluoromethyl)-6,7-dihydro-5H-cyclopenta[b]pyridin-4-yl)carbamoyl)-4-fluoro-1H-pyrazole-3-sulfonimidamide], the IC50 under setting [1] fell in the range of 5 to 30 µM.

For the compound `Cc1cc(S(N)(=O)=NC(=O)Nc2c3c(nc4c2CCC4)CCC3)sc1C(C)(C)O` (stereo not shown) [Compound 692, N′-((1,2,3,5,6,7-hexahydrodicyclopenta[b,e]pyridin-8-yl)carbamoyl)-5-(2-hydroxypropan-2-yl)-4-methylthiophene-2-sulfonimidamide], the IC50 under setting [2] lay in the range of 1 to 5 µM.

In the case of `CCc1nc2c(c(NC(=O)N=S(N)(=O)c3sc(C(C)(C)O)cc3F)c1C1CC1)CCC2` (single isomer, unassigned) [Compound 631a, (S) or (R)-N′-((3-cyclopropyl-2-ethyl-6,7-dihydro-5H-cyclopenta[b]pyridin-4-yl)carbamoyl)-3-fluoro-5-(2-hydroxypropan-2-yl)thiophene-2-sulfonimidamide], under setting [3], the concentration for half-maximal inhibition (IC50) lay in the range of 5 to 30 µM.

On to `CC(C)(O)c1csc(S(N)(=O)=NC(=O)Nc2c3c(nc(C4CC4)c2C2CC2)CCC3)c1` (stereo not shown) [Compound 670, N′-((2,3-dicyclopropyl-6,7-dihydro-5H-cyclopenta[b]pyridin-4-yl)carbamoyl)-4-(2-hydroxypropan-2-yl)thiophene-2-sulfonimidamide], for which the IC50 under setting [2] lay in the range of 0.2 to 1 µM.

Take `C[C@@H]1CCc2c1nc1c(c2NC(=O)N=[S@@](N)(=O)c2cnc(C(C)(C)O)s2)CCC1` [Compound 162bb, (R,R)-2-(2-hydroxypropan-2-yl)-N′-((3-methyl-1,2,3,5,6,7-hexahydrodicyclo-penta[b,e]pyridin-8-yl)carbamoyl)thiazole-5-sulfonimidamide]: the half-maximal inhibitory concentration (IC50) under setting [4] lay in the range of 0.04 to 0.2 µM.

On to `CCn1cc(Cl)c(S(N)(=O)=NC(=O)Nc2c(C)c(C(F)(F)F)nc3c2CCC3)n1` (stereo not shown) [Compound 729], for which the half-maximal inhibitory concentration (IC50) under setting [2] fell in the range of 0.2 to 1 µM.

Turning to `CC(C)(O)c1cnc(S(N)(=O)=NC(=O)Nc2c3c(nc4c2CCC4(C)C)CCC3)s1` (single isomer, unassigned) [Compound 686a, (S) or (R)-N′-((3,3-dimethyl-1,2,3,5,6,7-hexahydrodicyclopenta [b,e]pyridin-8-yl)carbamoyl)-5-(2-hydroxypropan-2-yl)thiazole-2-sulfonimidamide], the IC50 under setting [3] is 0.2 to 1 µM.

Consider `CC1(C)CCc2c1nc1c(c2NC(=O)N=S(N)(=O)c2nn(C(F)F)cc2F)CCC1` (stereo not shown) [Example 621, 1-(Difluoromethyl)-N′-((3,3-dimethyl-1,2,3,5,6,7-hexahydrodicyclopenta[b,e]pyridin-8-yl)carbamoyl)-4-fluoro-1H-pyrazole-3-sulfonimidamide], for which the IC50 under setting [5] was in the range of 0.04 to 0.2 µM.

`Cc1nc2c(c(NC(=O)N=S(N)(=O)c3ncc(C(C)(C)O)s3)c1C1CC1)CCC2` (stereo not shown) [Compound 618, N′-((3-cyclopropyl-2-methyl-6,7-dihydro-5H-cyclopenta[b]pyridin-4-yl)carbamoyl)-5-(2-hydroxypropan-2-yl)thiazole-2-sulfonimidamide]: under setting [2], the IC50 was 1 to 5 µM.

In the case of `CC(C)(O)c1ncc(S(N)(=O)=NC(=O)Nc2c3c(nc4c2CCC4)CCCC3)s1` (stereo not shown) [Compound 161, N′-((2,3,5,6,7,8-hexahydro-1H-cyclopenta[b]quinolin-9-yl)carbamoyl)-2-(2-hydroxypropan-2-yl)thiazole-5-sulfonimidamide], under setting [4], the concentration for half-maximal inhibition (IC50) was in the range of 1 to 5 µM.

`C[C@H](O)c1csc([S@](N)(=O)=NC(=O)Nc2c3c(nc4c2CC[C@H]4C)CCC3)c1` (single isomer, unassigned) [Example 664, (R)-4-((S) or (R)-1-hydroxyethyl)-N′-(((R)-3-methyl-1,2,3,5,6,7-hexahydrodicyclopenta[b,e]pyridin-8-yl)carbamoyl) thiophene-2-sulfonimidamide]: the IC50 under setting [5] lay within 0.04 to 0.2 µM.

For the compound `CC1CCc2c1nc1c(c2NC(=O)N=S(N)(=O)c2cnn(C(C)C)c2)CCC1` (single isomer, unassigned) [Compound 171b, (R, S) and (R, R) or (S, R) and (S, S)-1-Isopropyl-N′-((3-methyl-1,2,3,5,6,7-hexahydrodicyclopenta [b,e]pyridin-8-yl)carbamoyl)-1H-pyrazole-4-sulfonimidamide], the IC50 under setting [3] lay in the range of 5 to 30 µM.

With `C[C@@](O)(CO)c1cc(F)c([S@](N)(=O)=NC(=O)Nc2c3c(nc4c2CCC42CC2)CCC3)s1` [Example 676, (R)-5-((R)-1,2-dihydroxypropan-2-yl)-3-fluoro-N′-((1′,5′,6′,7′-tetrahydro-2′H-spiro[cyclopropane-1,3′-dicyclopenta[b,e]pyridin]-8′-yl)carbamoyl)thiophene-2-sulfonimidamide], the half-inhibitory concentration (IC50) under setting [5] was 0.2 to 1 µM.

Regarding `CC1(C)CCc2c1nc1c(c2NC(=O)N=S(N)(=O)c2cnn3c2OCCC3)CCC1` (stereo not shown) [Compound 304, N′-((3,3-dimethyl-1,2,3,5,6,7-hexahydrodicyclopenta[b,e]pyridin-8-yl)carbamoyl)-6,7-dihydro-5H-pyrazolo[5,1-b][1,3]oxazine-3-sulfonimidamide], the IC50 under setting [2] fell in the range of 1 to 5 µM.

In the case of `CC1CCc2c1nc1c(c2NC(=O)N=S(N)(=O)c2sc(C(C)(C)O)nc2CO)CCC1` (single isomer, unassigned) [Compound 168ab, (S,R) or (S,S)-4-(hydroxymethyl)-2-(2-hydroxypropan-2-yl)-N′-((3-methyl-1,2,3,5,6,7-hexahydrodicyclo-penta[b,e]pyridin-8-yl)carbamoyl)thiazole-5-sulfonimidamide], for the setting “Homo sapiens, THP-1, Table B1, numeric bounds, read-out: Average IC50 of compounds in hTHP-1 assay: hTHP-1 IC50”, the concentration for half-maximal inhibition (IC50) was over 30 µM.

As to `C[C@H]1CCc2c1nc1c(c2NC(=O)N=S(N)(=O)c2cnc([C@](C)(O)CO)s2)CCC1` (single isomer, unassigned) [Example 732], the IC50 (Homo sapiens, THP-1, Table B4, class symbols, read-out: hTHP-1 IC50) lay in the range of 1 to 5 µM.

On to `CCn1cc(F)c(S(N)(=O)=NC(=O)Nc2c3c(nc(C(F)(F)F)c2-c2ccc(F)cc2)CCC3)n1` (single isomer, unassigned) [Example 788, (S) or (R)-1-ethyl-4-fluoro-N′-((3-(4-fluorophenyl)-2-(trifluoromethyl)-6,7-dihydro-5H-cyclopenta[b]pyridin-4-yl)carbamoyl)-1H-pyrazole-3-sulfonimidamide], for which the concentration for half-maximal inhibition (IC50) (Table B4, class symbols, read-out: hTHP-1 IC50) is 1 to 5 µM.

Consider `Cc1c(C(C)C)nc2c(c1NC(=O)N=S(N)(=O)c1cnc(C(C)(C)O)s1)CCC2` (single isomer, unassigned) [Compound 650b, (S) or (R)-2-(2-Hydroxypropan-2-yl)-N′-((2-isopropyl-3-methyl-6,7-dihydro-5H-cyclopenta[b]pyridin-4-yl)carbamoyl)thiazole-5-sulfonimidamide], for which, under setting [3], the half-inhibitory concentration (IC50) fell in the range of 5 to 30 µM.

For `CCOC(=O)c1nc2c(c(NC(=O)N=S(=O)(N[Si](C)(C)C(C)(C)C)c3cnc(C(C)(C)O)s3)c1C)CCC2` (stereo not shown) [Example 613, Ethyl 4-(3-(((tert-butyldimethylsilyl)amino)(2-(2-hydroxypropan-2-yl)thiazol-5-yl)(oxo)-l6-sulfaneylidene)ureido)-3-methyl-6,7-dihydro-5H-cyclopenta[b]pyridine-2-carboxylate], the IC50 (Homo sapiens, THP-1, Table B3, hTHP-1 assay, numeric values, read-out: IC50) is over 30 µM.

For `CC(C)(O)c1csc(S(N)(=O)=NC(=O)Nc2cc(C3CC3)nc3c2CCC3)c1` (single isomer, unassigned) [Compound 176a, (S) or (R)-N′-((2-cyclopropyl-6,7-dihydro-5H-cyclopenta[b]pyridin-4-yl)carbamoyl)-4-(2-hydroxypropan-2-yl)thiophene-2-sulfonimidamide], the IC50 (Homo sapiens, THP-1, Table B2, numeric bounds, read-out: hTHP-1 IC50) was over 30 µM.

As to `CCc1ncc(S(N)(=O)=NC(=O)Nc2c3c(nc4c2CC[C@H]4C)CCC3)s1` (single isomer, unassigned) [Example 673, (S) or (R)-2-ethyl-N′-(((R)-3-methyl-1,2,3,5,6,7-hexahydrodicyclopenta[b,e]pyridin-8-yl)carbamoyl) thiazole-5-sulfonimidamide], the IC50 under setting [1] fell in the range of 5 to 30 µM.

Regarding `CC1CCc2c1nc1c(c2NC(=O)N=S(N)(=O)c2cc(C(C)(C)O)cs2)CCC1C` (single isomer, unassigned) [Compound 131g, (R,R,R) or (R,S,S)-N′-((3,5-dimethyl-1,2,3,5,6,7-hexa-hydrodicyclo-penta[b,e]pyridin-8-yl)carbamoyl)-4-(2-hydroxypropan-2-yl)thio-phene-2-sulfonimidamide], the half-inhibitory concentration (IC50) (Table B1, class symbols, read-out: Average IC50 of compounds in hTHP-1 assay: hTHP-1 IC50) fell in the range of 0.2 to 1 µM.

On to `CC(C)(O)c1cc(F)c(S(N)(=O)=NC(=O)Nc2c3c(nc(C(F)(F)F)c2C2CC2)CCC3)s1` (stereo not shown) [Example 610], for which the IC50 under setting [5] fell in the range of 0.2 to 1 µM.

Consider `CCc1nc2c(c(NC(=O)N=S(N)(=O)c3sc(C(C)(C)O)cc3F)c1C1CC1)CCC2` (stereo not shown) [Compound 631, N′-((3-cyclopropyl-2-ethyl-6,7-dihydro-5H-cyclopenta[b]pyridin-4-yl)carbamoyl)-3-fluoro-5-(2-hydroxypropan-2-yl)thiophene-2-sulfonimidamide], for which, under setting [2], the IC50 was 0.04 to 0.2 µM.

For `Cc1c(C(F)(F)F)nc2c(c1NC(=O)N=S(N)(=O)c1ccn(C(F)F)n1)CCC2` (single isomer, unassigned) [Compound 621a, (S) or (R)-1-(Difluoromethyl)-N′-((3-methyl-2-(trifluoromethyl)-6,7-dihydro-5H-cyclopenta[b]pyridin-4-yl)carbamoyl)-1H-pyrazole-3-sulfonimidamide], under setting [3], the IC50 was 5 to 30 µM.
